Measured values as given in ChEMBL document CHEMBL1201862, “PubChem BioAssay data set” (2004).
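Briefly, cells in 96-well plates were exposed to five compound concentrations for 48 h, and endpoints were estimated by linear interpolation. At the GI50, growth is halved.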 Active and inactive are the calls of the source. Rule as the data show it: active = GI50 up to about 1.1 µM and inactive = higher.

Experiments:
Experiment in all cases: NCI anticancer screen, dose series, 48 h
KM12 = test system: KM12
CAKI-1 = test system: CAKI-1
SK-MEL-5 = test system: SK-MEL-5
NCI-H460 = test system: NCI-H460
HT-29 = test system: HT-29
HOP-62 = test system: HOP-62
ACHN = test system: ACHN
HCT-15 = test system: HCT-15
SK-OV-3 = test system: SK-OV-3
MDA-MB-231 = test system: MDA-MB-231
PC-3 = test system: PC-3
RPMI-8226 = test system: RPMI-8226
786-0 = test system: 786-0
DU-145 = test system: DU-145
COLO 205 = test system: COLO 205
OVCAR-4 = test system: OVCAR-4
IGROV-1 = test system: IGROV-1
UACC-62 = test system: UACC-62
K562 = test system: K562
NCI/ADR-RES = test system: NCI/ADR-RES

SMILES | GI50 (KM12) | GI50 (CAKI-1) | GI50 (SK-MEL-5) | GI50 (NCI-H460) | GI50 (HT-29) | GI50 (HOP-62) | GI50 (ACHN) | GI50 (HCT-15) | GI50 (SK-OV-3) | GI50 (MDA-MB-231) | GI50 (PC-3) | GI50 (RPMI-8226) | GI50 (786-0) | GI50 (DU-145) | GI50 (COLO 205) | GI50 (OVCAR-4) | GI50 (IGROV-1) | GI50 (UACC-62) | GI50 (K562) | GI50 (NCI/ADR-RES)
Cc1cc2c(cc1C)[n+]([O-])c(C(=O)/C=C/c1ccccc1[N+](=O)[O-])c(C)[n+]2[O-] | > 100 µM (inactive) | 47.2 µM (inactive) | > 100 µM (inactive) | 71.6 µM (inactive) | > 92.3 µM (inactive) | 34 µM (inactive) | 46.3 µM (inactive) | 73.8 µM | > 46.7 µM (inactive) | > 65.5 µM (inactive) | > 100 µM (inactive) | > 73.3 µM (inactive) | 33 µM (inactive) | > 100 µM (inactive) | 99.3 µM (inactive) | > 100 µM (inactive) | > 80 µM (inactive) | 40 µM (inactive) | > 100 µM (inactive) | > 100 µM (inactive)
COC(=O)/C(=C/c1ccc(OC)cc1)c1cc(OC)c(OC)c(OC)c1 | 0.521 µM (active) | 1.12 µM (inactive) | 0.569 µM (active) | 5.11 µM (inactive) | 0.524 µM (active) | 1.53 µM (inactive) | 9.93 µM (inactive) | 0.646 µM | 1.34 µM (inactive) | 3.38 µM (inactive) | 0.693 µM (active) | 2.52 µM (inactive) | 4.12 µM (inactive) | 1.69 µM (inactive) | 1.47 µM (inactive) | 7.43 µM (inactive) | 2.48 µM (inactive) | 0.631 µM (active) | 0.366 µM (active) | 0.514 µM (active)
CN(C)c1ccc(/C=C(\NC(=O)c2ccccc2)C(=O)Nc2cccc(C(=O)NCCCO)c2)cc1 | > 100 µM (inactive) | > 100 µM (inactive) | > 100 µM (inactive) | > 100 µM (inactive) | > 100 µM (inactive) | > 100 µM (inactive) | > 100 µM (inactive) | > 100 µM | > 100 µM (inactive) | > 100 µM (inactive) | > 100 µM (inactive) | > 100 µM (inactive) | > 100 µM (inactive) | > 100 µM (inactive) | > 100 µM (inactive) | > 100 µM (inactive) | > 100 µM (inactive) | > 100 µM (inactive) | > 100 µM (inactive) | > 100 µM (inactive)
O=C1OCC(c2ccc(Cl)cc2)=C1Cl | 15.4 µM (inactive) | 30.5 µM (inactive) | 17.1 µM (inactive) | 17.8 µM (inactive) | 44.7 µM (inactive) | 22.9 µM (inactive) | 42.1 µM (inactive) | 29.9 µM | > 100 µM (inactive) | 33.3 µM (inactive) | 22.1 µM (inactive) | 23.8 µM (inactive) | 17.7 µM (inactive) | 49.5 µM (inactive) | 24.4 µM (inactive) | 44.8 µM (inactive) | < 0.01 µM (active) | 18.7 µM (inactive) | 28.2 µM (inactive) | 26.9 µM (inactive)
C[N+]1([O-])C2CCC1CC(OC(=O)C(CO)c1ccccc1)C2 (stereo not given) | > 100 µM (inactive) | > 100 µM (inactive) | > 100 µM (inactive) | > 100 µM (inactive) | > 100 µM (inactive) | > 100 µM (inactive) | > 100 µM (inactive) | > 55.8 µM | > 100 µM (inactive) | > 100 µM (inactive) | > 100 µM (inactive) | > 100 µM (inactive) | > 100 µM (inactive) | > 100 µM (inactive) | > 100 µM (inactive) | > 100 µM (inactive) | > 100 µM (inactive) | > 100 µM (inactive) | > 100 µM (inactive) | > 33.4 µM (inactive)
CN(CCCN1CCCC1)CCCN(C)C(=O)Cc1ccc(Cl)c(Cl)c1 | 18.7 µM (inactive) | 20.6 µM (inactive) | 15.3 µM (inactive) | 16.3 µM (inactive) | 3.77 µM (inactive) | 19.2 µM (inactive) | 27.6 µM (inactive) | 26.1 µM | 27.7 µM (inactive) | 12.6 µM (inactive) | 22.1 µM (inactive) | 4.61 µM (inactive) | 13.4 µM (inactive) | 43.9 µM (inactive) | 17.6 µM (inactive) | 29.6 µM (inactive) | 23.9 µM (inactive) | 2.36 µM (inactive) | 5.75 µM (inactive) | > 73.3 µM (inactive)
